# Measured values as given in patent US8022215B2, “Fused pyridone M1 receptor positive allosteric modulators” (Merck Sharp & Dohme Corp., priority 2008, dated 2011).
# Target: T1, acetylcholine muscarinic M1 receptor (Homo sapiens, UniProt P11229)
# T1 construct: expressed in transfected cells; host or cells: CHOnfat (CHO cells, Geneticin selection)
# T1 sequence (P11229 1-460): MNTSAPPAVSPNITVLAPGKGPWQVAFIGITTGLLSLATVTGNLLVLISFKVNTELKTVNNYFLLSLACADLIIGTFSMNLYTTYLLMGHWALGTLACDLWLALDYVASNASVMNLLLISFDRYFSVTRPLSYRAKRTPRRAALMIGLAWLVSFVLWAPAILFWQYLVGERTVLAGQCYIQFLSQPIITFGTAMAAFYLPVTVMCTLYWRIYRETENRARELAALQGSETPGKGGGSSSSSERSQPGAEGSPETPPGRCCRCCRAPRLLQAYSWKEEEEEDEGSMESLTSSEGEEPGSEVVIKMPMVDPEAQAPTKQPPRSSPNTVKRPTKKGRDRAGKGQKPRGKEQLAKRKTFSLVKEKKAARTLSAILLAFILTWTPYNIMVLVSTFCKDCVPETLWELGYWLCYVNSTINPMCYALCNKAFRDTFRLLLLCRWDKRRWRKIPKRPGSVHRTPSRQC
# Experiment: muscarinic FLIPR assay: potentiation of acetylcholine (EC20)-stimulated intracellular Ca2+ in CHOnfat/hM1 cells
# Type: cell-based
# Conditions: not given
# Procedure: The assay studies the effect of one or several concentrations of test compounds on basal or acetylcholine-stimulated Ca^2+ levels using FLIPR.
# Compounds are prepared and subjected to a preincubation period of 4 min. Thereafter, a single EC20 concentration of acetylcholine is added to each well (3 nM final). The intracellular Ca^2+ level of each sample is measured and compared to an acetylcholine control to determine any modulatory activity.
# Cells: CHOnfat/hM1, hM2, hM3 or hM4 cells are plated 24 hr before the assay at a density of 18,000 cells/well (100 μL) in a 384 well plate. CHOnfat/hM1 and CHOnfat/hM3 Growth Medium: 90% DMEM (Hi Glucose); 10% HI FBS; 2 mM L-glutamine; 0.1 mM NEAA; Pen-Strep; and 1 mg/ml Geneticin, are added. For M2Gqi5CHOnfat and M4Gqi5CHOnfat cells, an additional 600 μg/ml hygromycin is added.
# Buffers. […] Dye Loading Buffer: Assay Buffer plus 1% Fetal Bovine Serum and Fluo-4AM/Pluronic Acid Mixture. […] 20% Pluronic Acid Solution stock, with a concentration of 0.04% in Buffer, 0.02% in Assay.
# 65 μL of 2 mM Fluo-4AM are mixed with 130 μL of 20% Pluronic Acid. The resulting solution and 650 μL FBS is added to the assay buffer for a total volume of 65 mL. Positive Controls: 4-Br-A23187: 10 mM in DMSO; final concentration 10 μM. Acetylcholine: 10 mM in water, working stock at both 20 μM and 30 μM in assay buffer, final concentration of 10 μM. This is used to check the maximum stimulation of the CHOK1/hM1 cells. 20 μM (2×) acetylcholine is added in the preincubation part of the assay, and the 30 μM (3×) stock is added in the second part. (EC20)Acetylcholine: 10 mM in water, working stock of 9 nM (3×), and final concentration in assay is 3 nM. This is used after the preincubation with test compounds. Addition of the EC20 acetylcholine to each well with a test compound will ascertain any modulator activity. 24 wells contain 3 nM acetylcholine alone as a control.
# Determining Activity of Putative Compounds:
# Four 96-well plates are combined into a 384-well plate using Mosquito Nanolitre Pipetting System by transferring 1 μl of serial diluted compounds to each well, and 1 mM acetylcholine (100× stock concentration) were added as a control. Using Temo, 49 μl assay buffer is added to each well of the 384-well plate right before assay.
# In a 96-well Whatman 2 ml Uniplate, 9 nM acetylcholine (3×) is pipetted into wells corresponding to the screening compounds and into control wells. The 30 μM acetylcholine control (3×) is added into control wells and the 3× agonist plate is transferred into a 384-well plate.
# Cells are washed three times with 100 μL of buffer, leaving 30 μL of buffer in each well. Using Multimek, 30 μL of Dye Loading Buffer is added into each well and incubated at 37° C., 5% CO2 for up to one hr.
# After 60 min, the cells are washed three times with 100 μL of buffer, leaving 30 μL of buffer in each well. The cell plate, screening plate, and agonist addition plates are placed on the platform in the FLIPR and the door is closed. A signal test to check background fluorescence and basal fluorescence signal is performed. Laser intensity is adjusted if necessary.
# 4 min of preincubation with the test compounds is provided to determine any agonist activity on the M1 receptor by comparison to the 1 mM acetylcholine control. After preincubation, the EC20 value of acetylcholine (3 nM final) is added to determine any modulator activity.
# The inflection point is calculated from the FLIPR values and is a measure of activity.
row,Compound,EC50
1,"COc1ccccc1-c1ccc(Cn2cc(C(=O)O)c(=O)c3c2CCCC3O)cc1 (racemic) [Example 27, (±)-5-Hydroxy-1-[(2′-methoxybiphenyl-4-yl)methyl]-4-oxo-1,4,5,6,7,8-hexahydroquinoline-3carboxylic acid]",3.14 µM
2,"CCC1(O)CCCc2c1c(=O)c(C(=O)O)cn2Cc1ccc(-c2ccccc2)cc1 (racemic) [Example 68, (±)-1-(Biphenyl-4-ylmethyl)-5-ethyl-5-hydroxy-4-oxo-1,4,5,6,7,8-hexahydroquinoline-3-carboxylic acid]",9.05 µM
3,"O=C(O)c1cn(C/C=C/c2ccccc2F)c2c(c1=O)C(=O)CCC2 [Example 15, 1-[(2E)-3-(2-Fluorophenyl)prop-2-en-1-yl]-4,5-dioxo-1,4,5,6,7,8-hexahydroquinoline-3-carboxylic acid]",64 µM
4,N#Cc1ccc(-c2ccc(Cn3cc(C(=O)O)c(=O)c4c3CCCC4O)cc2)cc1 (stereo not shown) [Example 41],0.318 µM
5,COc1ccc(-c2ccc(Cn3cc(C(=O)O)c(=O)c4c3CCCC4O)cc2)cn1 (stereo not shown) [Example 53],0.323 µM
6,Cn1ccc2cc(-c3ccc(Cn4cc(C(=O)O)c(=O)c5c4CCCC5O)nc3)ccc21 (stereo not shown) [Example 66],0.199 µM
7,CNC1CCCc2c1c(=O)c(C(=O)O)cn2Cc1ccc(-c2ccccc2)cc1 (stereo not shown) [Example 70],8.37 µM
8,O=C(O)c1cn(Cc2ccc(-c3ccccc3)cc2)c2c(c1=O)C(N1CCCC1)CCC2 (stereo not shown) [Example 73],4.1 µM

# The next lines start with the values.
row,EC50,Compound
1,1.1 µM,"COC1CCCc2c1c(=O)c(C(=O)O)cn2Cc1ccc(-c2ccccc2)cc1 (racemic) [Example 62, (±)-1-(Biphenyl-4-ylmethyl)-5-methoxy-4-oxo-1,4,5,6,7,8-hexahydroquinoline-3-carboxylic acid]"
2,0.812 µM,"O=C(O)c1cn(Cc2ccc(-c3ccccc3)cc2)c2c(c1=O)CCC2 [Example 1, 1-(Biphenyl-4-ylmethyl)-4-oxo-4,5,6,7-tetrahydro-1H-cyclopenta[b]pyridine-3-carboxylic acid]"
3,1.5 µM,CCCCNC1CCCc2c1c(=O)c(C(=O)O)cn2Cc1ccc(-c2ccccc2)cc1 (stereo not shown) [Example 71]
4,2.2 µM,O=C(O)c1cn(Cc2ccc(-c3ccccc3)cc2)c2c(c1=O)C(NCc1ccccc1)CCC2 (stereo not shown) [Example 72]

# Same assay, conditions: CHOnfat/hM1 cells, FLIPR, 4 min preincubation, then EC20 acetylcholine (3 nM final); read-out: IP Value (inflection point)
row,EC50,Compound
1,0.806 µM,O=C(O)c1cn(Cc2ccc(-c3ccccc3)cc2)c2c(c1=O)C(=O)CCC2 [Example 6]
